Assay results published in PubChem BioAssay AID1918957 (Molecular Pharmacology Branch, DTP, NCI, 2023).

Tested on: NCI-H1876 complex spheroid viability
Test: Anticancer human tumor NCI-H1876 cell line growth inhibition [LSD1];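 further: spheroids exposed to compounds for one week before readout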;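 on viability, T/C: 100% = DMSO vehicle-treated spheroids so lower means fewer viable cells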
Conditions: for IC50: curve of first compound; for viability, T/C: stronger effect = lower value
Outline: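 Drug combinations with the LSD1 inhibitor iadademstat tested on tumor cells co-cultured as spheroids with endothelial cells and mesenchymal stem cells. Concentrations descended in half-log increments from clinical Cmax or 10 microM.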

[1] = second compound 0.1 µM, first compound 0.0316 µM
[2] = second compound 0.1 µM, first compound 0.1 µM
[3] = second compound 0.1 µM, first compound 0.316 µM
[4] = second compound 0.1 µM, first compound 1 µM
[5] = second compound 0.1 µM, first compound 3.16 µM
[6] = second compound 0.1 µM, first compound 10 µM
[7] = second compound 0.316 µM, first compound 0.0316 µM
[8] = second compound 0.316 µM, first compound 0.1 µM
[9] = second compound 0.316 µM, first compound 0.316 µM
[10] = second compound 0.316 µM, first compound 1 µM
[11] = second compound 0.316 µM, first compound 3.16 µM
[12] = second compound 0.316 µM, first compound 10 µM
[13] = second compound 1 µM, first compound 0.0316 µM
[14] = second compound 1 µM, first compound 0.1 µM
[15] = second compound 1 µM, first compound 0.316 µM
[16] = second compound 1 µM, first compound 1 µM
[17] = second compound 1 µM, first compound 3.16 µM
[18] = second compound 1 µM, first compound 10 µM
[19] = second compound 3.16 µM, first compound 0.0316 µM
[20] = second compound 3.16 µM, first compound 0.1 µM
[21] = second compound 3.16 µM, first compound 0.316 µM
[22] = second compound 3.16 µM, first compound 1 µM
[23] = second compound 3.16 µM, first compound 3.16 µM
[24] = second compound 3.16 µM, first compound 10 µM
[25] = second compound 10 µM, first compound 0.0316 µM
[26] = second compound 10 µM, first compound 0.1 µM
[27] = second compound 10 µM, first compound 0.316 µM
[28] = second compound 10 µM, first compound 1 µM
[29] = second compound 10 µM, first compound 3.16 µM
[30] = second compound 10 µM, first compound 10 µM
[31] = second compound 0.1 µM, first compound 0.00949 µM
[32] = second compound 0.1 µM, first compound 0.03 µM
[33] = second compound 0.1 µM, first compound 0.0949 µM
[34] = second compound 0.1 µM, first compound 0.3 µM
[35] = second compound 0.316 µM, first compound 0.00949 µM
[36] = second compound 0.316 µM, first compound 0.03 µM
[37] = second compound 0.316 µM, first compound 0.0949 µM
[38] = second compound 0.316 µM, first compound 0.3 µM
[39] = second compound 1 µM, first compound 0.00949 µM
[40] = second compound 1 µM, first compound 0.03 µM
[41] = second compound 1 µM, first compound 0.0949 µM
[42] = second compound 1 µM, first compound 0.3 µM
[43] = second compound 3.16 µM, first compound 0.00949 µM
[44] = second compound 3.16 µM, first compound 0.03 µM
[45] = second compound 3.16 µM, first compound 0.0949 µM
[46] = second compound 3.16 µM, first compound 0.3 µM
[47] = second compound 10 µM, first compound 0.00949 µM
[48] = second compound 10 µM, first compound 0.03 µM
[49] = second compound 10 µM, first compound 0.0949 µM
[50] = second compound 10 µM, first compound 0.3 µM

CC1(C)CCC(CN2CCN(c3ccc(C(=O)NS(=O)(=O)c4ccc(NCC5CCOCC5)c([N+](=O)[O-])c4)c(Oc4cnc5[nH]ccc5c4)c3)CC2)=C(c2ccc(Cl)cc2)C1 + NC1CCC(NC2CC2c2ccccc2)CC1
IC50 (second compound 0.1 µM): 2140 nM
IC50 (second compound 0.316 µM): 2000 nM
IC50 (second compound 1 µM): 2090 nM
IC50 (second compound 3.16 µM): 2060 nM
IC50 (second compound 10 µM): 2010 nM
viability, T/C [1]: 103%
viability, T/C [2]: 98.4%
viability, T/C [3]: 99.3%
viability, T/C [4]: 100%
viability, T/C [5]: 24.5%
viability, T/C [6]: 9.5%
viability, T/C [7]: 104%
viability, T/C [8]: 105%
viability, T/C [9]: 97%
viability, T/C [10]: 89.1%
viability, T/C [11]: 24.3%
viability, T/C [12]: 10.5%
viability, T/C [13]: 92.9%
viability, T/C [14]: 104%
viability, T/C [15]: 102%
viability, T/C [16]: 98.9%
viability, T/C [17]: 22.4%
viability, T/C [18]: 8.48%
viability, T/C [19]: 115%
viability, T/C [20]: 96.2%
viability, T/C [21]: 103%
viability, T/C [22]: 101%
viability, T/C [23]: 19.8%
viability, T/C [24]: 7.55%
viability, T/C [25]: 99.2%
viability, T/C [26]: 110%
viability, T/C [27]: 87.2%
viability, T/C [28]: 90.6%
viability, T/C [29]: 23.6%
viability, T/C [30]: 8%

CC1COCCN1c1cc(C2(S(C)(=N)=O)CC2)nc(-c2ccnc3[nH]ccc23)n1 (stereo not given) + NC1CCC(NC2CC2c2ccccc2)CC1
IC50 (second compound 0.1 µM): 7480 nM
IC50 (second compound 0.316 µM): 6670 nM
IC50 (second compound 1 µM): 6720 nM
IC50 (second compound 3.16 µM): 6220 nM
IC50 (second compound 10 µM): 5470 nM
viability, T/C [1]: 115%
viability, T/C [2]: 116%
viability, T/C [3]: 115%
viability, T/C [4]: 124%
viability, T/C [5]: 91.6%
viability, T/C [6]: 35.9%
viability, T/C [7]: 119%
viability, T/C [8]: 129%
viability, T/C [9]: 117%
viability, T/C [10]: 105%
viability, T/C [11]: 86.2%
viability, T/C [12]: 30.7%
viability, T/C [13]: 118%
viability, T/C [14]: 116%
viability, T/C [15]: 114%
viability, T/C [16]: 113%
viability, T/C [17]: 86.6%
viability, T/C [18]: 30.7%
viability, T/C [19]: 116%
viability, T/C [20]: 130%
viability, T/C [21]: 126%
viability, T/C [22]: 110%
viability, T/C [23]: 80.6%
viability, T/C [24]: 28.8%
viability, T/C [25]: 114%
viability, T/C [26]: 116%
viability, T/C [27]: 113%
viability, T/C [28]: 101%
viability, T/C [29]: 73.7%
viability, T/C [30]: 24.2%

CCN(c1cc(-c2ccc(CN3CCOCC3)cc2)cc(C(=O)NCc2c(C)cc(C)[nH]c2=O)c1C)C1CCOCC1 + NC1CCC(NC2CC2c2ccccc2)CC1
IC50 (second compound 0.1 µM): > 3000 nM
IC50 (second compound 0.316 µM): > 3000 nM
IC50 (second compound 1 µM): > 3000 nM
IC50 (second compound 3.16 µM): > 3000 nM
IC50 (second compound 10 µM): > 3000 nM
viability, T/C [31]: 108%
viability, T/C [32]: 103%
viability, T/C [33]: 104%
viability, T/C [34]: 93.8%
viability, T/C (second compound 0.1 µM, first compound 0.949 µM): 85.3%
viability, T/C (second compound 0.1 µM, first compound 3 µM): 64%
viability, T/C [35]: 110%
viability, T/C [36]: 117%
viability, T/C [37]: 102%
viability, T/C [38]: 93.3%
viability, T/C (second compound 0.316 µM, first compound 0.949 µM): 87.1%
viability, T/C (second compound 0.316 µM, first compound 3 µM): 65.8%
viability, T/C [39]: 104%
viability, T/C [40]: 111%
viability, T/C [41]: 102%
viability, T/C [42]: 91.3%
viability, T/C (second compound 1 µM, first compound 0.949 µM): 84.9%
viability, T/C (second compound 1 µM, first compound 3 µM): 54.4%
viability, T/C [43]: 99.8%
viability, T/C [44]: 109%
viability, T/C [45]: 106%
viability, T/C [46]: 108%
viability, T/C (second compound 3.16 µM, first compound 0.949 µM): 86.3%
viability, T/C (second compound 3.16 µM, first compound 3 µM): 56.3%
viability, T/C [47]: 115%
viability, T/C [48]: 106%
viability, T/C [49]: 97.4%
viability, T/C [50]: 97.6%
viability, T/C (second compound 10 µM, first compound 0.949 µM): 79%
viability, T/C (second compound 10 µM, first compound 3 µM): 56.8%

Nc1ncn(C2CC(O)C(CO)S2)c(=O)n1 (stereo not given) + NC1CCC(NC2CC2c2ccccc2)CC1
IC50 (second compound 0.1 µM): > 300 nM
IC50 (second compound 0.316 µM): > 300 nM
IC50 (second compound 1 µM): > 300 nM
IC50 (second compound 3.16 µM): > 300 nM
IC50 (second compound 10 µM): > 300 nM
viability, T/C (second compound 0.1 µM, first compound 0.000949 µM): 106%
viability, T/C (second compound 0.1 µM, first compound 0.003 µM): 100%
viability, T/C [31]: 92.6%
viability, T/C [32]: 87.9%
viability, T/C [33]: 84.5%
viability, T/C [34]: 70.7%
viability, T/C (second compound 0.316 µM, first compound 0.000949 µM): 105%
viability, T/C (second compound 0.316 µM, first compound 0.003 µM): 113%
viability, T/C [35]: 98.5%
viability, T/C [36]: 99.2%
viability, T/C [37]: 85.7%
viability, T/C [38]: 67.8%
viability, T/C (second compound 1 µM, first compound 0.000949 µM): 109%
viability, T/C (second compound 1 µM, first compound 0.003 µM): 117%
viability, T/C [39]: 99.2%
viability, T/C [40]: 93.4%
viability, T/C [41]: 85.2%
viability, T/C [42]: 64.1%
viability, T/C (second compound 3.16 µM, first compound 0.000949 µM): 119%
viability, T/C (second compound 3.16 µM, first compound 0.003 µM): 113%
viability, T/C [43]: 105%
viability, T/C [44]: 91.5%
viability, T/C [45]: 81.3%
viability, T/C [46]: 63.2%
viability, T/C (second compound 10 µM, first compound 0.000949 µM): 118%
viability, T/C (second compound 10 µM, first compound 0.003 µM): 108%
viability, T/C [47]: 98.8%
viability, T/C [48]: 96.9%
viability, T/C [49]: 81.1%
viability, T/C [50]: 57%

O=C(C=Cn1cnc(-c2cc(C(F)(F)F)cc(C(F)(F)F)c2)n1)NNc1cnccn1 + NC1CCC(NC2CC2c2ccccc2)CC1
IC50 (second compound 0.1 µM): 91.4 nM
IC50 (second compound 0.316 µM): 81.9 nM
IC50 (second compound 1 µM): 83.5 nM
IC50 (second compound 3.16 µM): 75.1 nM
IC50 (second compound 10 µM): 65.2 nM
viability, T/C (second compound 0.1 µM, first compound 0.00316 µM): 98.9%
viability, T/C (second compound 0.1 µM, first compound 0.01 µM): 91.6%
viability, T/C [1]: 90.2%
viability, T/C [2]: 46.7%
viability, T/C [3]: 23.5%
viability, T/C [4]: 23.2%
viability, T/C (second compound 0.316 µM, first compound 0.00316 µM): 104%
viability, T/C (second compound 0.316 µM, first compound 0.01 µM): 96.6%
viability, T/C [7]: 87.2%
viability, T/C [8]: 42.1%
viability, T/C [9]: 22.4%
viability, T/C [10]: 20.3%
viability, T/C (second compound 1 µM, first compound 0.00316 µM): 94.4%
viability, T/C (second compound 1 µM, first compound 0.01 µM): 96%
viability, T/C [13]: 86.9%
viability, T/C [14]: 43.1%
viability, T/C [15]: 22.9%
viability, T/C [16]: 20.6%
viability, T/C (second compound 3.16 µM, first compound 0.00316 µM): 93.8%
viability, T/C (second compound 3.16 µM, first compound 0.01 µM): 90.9%
viability, T/C [19]: 85.8%
viability, T/C [20]: 38.1%
viability, T/C [21]: 23.2%
viability, T/C [22]: 20.6%
viability, T/C (second compound 10 µM, first compound 0.00316 µM): 94.4%
viability, T/C (second compound 10 µM, first compound 0.01 µM): 89.1%
viability, T/C [25]: 75.7%
viability, T/C [26]: 35.1%
viability, T/C [27]: 19.3%
viability, T/C [28]: 19.8%
